# Results from patent US10457655B2, “Compounds and compositions for inhibition of FASN” (FORMA Therapeutics, Inc., priority 2013, dated 2019).
# Target: FASN enzyme (Homo sapiens, UniProt P49327)
# Assay: Enzymatic Assay for FASN Inhibitors
# Assay type: biochemical
# Conditions: not given
# Method in brief: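 40 nM FASN preincubated with compound 60 min at 25° C in HEPES pH 7.3 buffer with 0.04% Triton X-100. Then 20 μM acetyl-CoA, 60 μM malonyl-CoA and 100 μM NADPH added for 90 min, quenched with CPM thiol probe; fluorescence 360/530 nm, IC50 by four-parameter fit.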
# Chain of FASN enzyme (P49327 whole entry): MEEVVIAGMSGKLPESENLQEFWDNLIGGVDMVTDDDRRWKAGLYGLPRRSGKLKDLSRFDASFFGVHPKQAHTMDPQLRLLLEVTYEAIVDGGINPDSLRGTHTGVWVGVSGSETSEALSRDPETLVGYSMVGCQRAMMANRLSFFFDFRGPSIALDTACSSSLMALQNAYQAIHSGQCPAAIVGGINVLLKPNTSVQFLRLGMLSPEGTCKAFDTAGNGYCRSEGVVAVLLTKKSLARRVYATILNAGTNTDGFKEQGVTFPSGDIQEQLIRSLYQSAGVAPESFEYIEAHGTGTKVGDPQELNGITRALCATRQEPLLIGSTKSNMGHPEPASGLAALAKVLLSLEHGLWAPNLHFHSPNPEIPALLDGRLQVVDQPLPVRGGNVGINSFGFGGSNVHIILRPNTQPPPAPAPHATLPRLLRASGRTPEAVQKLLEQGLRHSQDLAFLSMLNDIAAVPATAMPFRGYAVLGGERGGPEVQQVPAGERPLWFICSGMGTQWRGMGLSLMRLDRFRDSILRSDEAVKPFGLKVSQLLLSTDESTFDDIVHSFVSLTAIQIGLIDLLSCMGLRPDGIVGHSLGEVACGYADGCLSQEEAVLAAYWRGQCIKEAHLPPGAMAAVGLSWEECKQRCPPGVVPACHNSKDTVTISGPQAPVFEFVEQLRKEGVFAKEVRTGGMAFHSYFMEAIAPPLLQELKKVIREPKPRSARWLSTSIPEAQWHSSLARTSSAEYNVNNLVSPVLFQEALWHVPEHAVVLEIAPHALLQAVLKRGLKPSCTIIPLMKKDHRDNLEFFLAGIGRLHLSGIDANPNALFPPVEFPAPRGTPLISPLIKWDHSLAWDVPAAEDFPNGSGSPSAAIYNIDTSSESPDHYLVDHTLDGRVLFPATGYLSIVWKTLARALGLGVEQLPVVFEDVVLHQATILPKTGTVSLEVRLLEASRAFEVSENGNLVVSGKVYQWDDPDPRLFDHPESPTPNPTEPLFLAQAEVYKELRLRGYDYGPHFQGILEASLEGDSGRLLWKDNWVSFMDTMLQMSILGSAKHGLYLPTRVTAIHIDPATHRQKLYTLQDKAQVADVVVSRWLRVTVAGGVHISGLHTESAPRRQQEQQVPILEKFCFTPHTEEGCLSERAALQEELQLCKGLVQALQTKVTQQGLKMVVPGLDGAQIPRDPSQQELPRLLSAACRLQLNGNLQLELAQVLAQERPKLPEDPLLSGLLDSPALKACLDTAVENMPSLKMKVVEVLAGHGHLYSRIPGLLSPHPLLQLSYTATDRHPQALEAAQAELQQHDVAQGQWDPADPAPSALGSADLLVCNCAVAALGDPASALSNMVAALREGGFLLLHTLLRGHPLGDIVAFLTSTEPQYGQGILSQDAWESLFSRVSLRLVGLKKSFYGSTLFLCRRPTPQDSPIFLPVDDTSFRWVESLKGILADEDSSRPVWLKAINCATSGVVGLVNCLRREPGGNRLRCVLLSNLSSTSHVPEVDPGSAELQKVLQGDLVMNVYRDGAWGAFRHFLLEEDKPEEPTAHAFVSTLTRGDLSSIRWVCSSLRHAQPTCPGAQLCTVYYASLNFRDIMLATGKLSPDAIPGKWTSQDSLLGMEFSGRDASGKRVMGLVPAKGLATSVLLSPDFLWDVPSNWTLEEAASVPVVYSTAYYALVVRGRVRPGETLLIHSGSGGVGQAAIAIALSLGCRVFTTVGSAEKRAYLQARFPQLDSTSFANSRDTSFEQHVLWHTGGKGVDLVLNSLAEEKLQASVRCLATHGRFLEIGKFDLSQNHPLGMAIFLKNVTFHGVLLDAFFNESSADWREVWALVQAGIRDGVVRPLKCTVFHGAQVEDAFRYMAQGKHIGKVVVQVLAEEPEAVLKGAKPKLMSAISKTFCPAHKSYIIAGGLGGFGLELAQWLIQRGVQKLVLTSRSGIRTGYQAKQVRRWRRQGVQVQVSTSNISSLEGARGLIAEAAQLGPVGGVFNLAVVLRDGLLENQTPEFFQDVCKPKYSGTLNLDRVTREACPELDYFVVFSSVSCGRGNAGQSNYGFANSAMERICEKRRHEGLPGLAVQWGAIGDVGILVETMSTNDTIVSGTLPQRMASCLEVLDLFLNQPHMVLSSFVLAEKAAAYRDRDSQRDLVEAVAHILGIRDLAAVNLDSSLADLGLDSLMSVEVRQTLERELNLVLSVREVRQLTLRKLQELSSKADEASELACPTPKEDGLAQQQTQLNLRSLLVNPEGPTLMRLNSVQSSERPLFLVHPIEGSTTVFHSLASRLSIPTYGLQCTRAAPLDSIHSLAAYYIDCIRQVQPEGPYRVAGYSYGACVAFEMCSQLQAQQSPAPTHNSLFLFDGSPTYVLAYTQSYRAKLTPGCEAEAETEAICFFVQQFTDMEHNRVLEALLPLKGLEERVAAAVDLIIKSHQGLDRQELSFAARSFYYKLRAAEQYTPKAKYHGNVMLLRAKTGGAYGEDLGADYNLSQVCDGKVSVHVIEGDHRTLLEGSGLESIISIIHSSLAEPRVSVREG
row,IC50 [nM],Compound
1,< 500,Cn1ncc2ccc(-c3ccc(C(=O)N4CCN(C(=O)C5(N)CCC5)CC4)c(F)c3)cc21 [1-{4-[2-fluoro-4-(1-methyl-1H-indazol-6-yl)benzoyl]piperazine-1-carbonyl}cyclobutan-1-amine]
2,< 500,"Nc1noc2ccc(-c3ccc(C(=O)N4CCN(C(=O)C5(O)CC5)CC4)cc3)cc12 [1-{4-[4-(3-amino-1,2-benzoxazol-5-yl)benzoyl]piperazine-1-carbonyl}cyclopropan-1-ol]"
3,< 500,C[C@@H]1CN(C(=O)c2ccc(-c3ccc(Cl)cc3F)cc2)CCN1C(=O)C1(O)CC1 [1-[(2R)-4-[4-(4-chloro-2-fluorophenyl)benzoyl]-2-methylpiperazine-1-carbonyl]cyclopropan-1-ol]
4,< 500,"C[C@H]1CN(C(=O)c2ccc(-c3nc4ccc(Cl)cc4o3)cc2)CCN1C(=O)C1(O)CC1 [1-[(2S)-4-[4-(6-chloro-1,3-benzoxazol-2-yl)benzoyl]-2-methylpiperazine-1-carbonyl]cyclopropan-1-ol]"
5,< 500,Nc1n[nH]c2cc(-c3ccc(C(=O)N4CCN(C(=O)C5(O)CC5)CC4)cc3)ccc12 [1-{4-[4-(3-amino-1H-indazol-6-yl)benzoyl]piperazine-1-carbonyl}cyclopropan-1-ol]
6,< 500,"Cc1nn(C)c2ccc(-c3ccc(C(=O)N4CCN(C(=O)C5(N)CCC5)CC4)cc3)cc12 [1-{4-[4-(1,3-dimethyl-1H-indazol-5-yl)benzoyl]piperazine-1-carbonyl}cyclobutan-1-amine]"
7,< 500,"O=C(c1ccc(N2CCc3cccc(F)c32)cc1)N1CCN(C(=O)C2(O)CC2)CC1 [1-{4-[4-(7-fluoro-2,3-dihydro-1H-indol-1-yl)benzoyl]piperazine-1-carbonyl}cyclopropan-1-ol]"
8,< 500,O=C(c1ccc(-c2cccc3nsnc23)cc1)N1CCN(C(=O)C2(O)CC2)CC1
9,< 500,"O=C(c1ccc(-c2nc3ccc(F)cc3o2)cc1F)N1CCN(C(=O)C2(O)CC2)CC1 [1-{4-[2-fluoro-4-(6-fluoro-1,3-benzoxazol-2-yl)benzoyl]piperazine-1-carbonyl}cyclopropan-1-ol]"
10,< 500,"C[C@@H]1CN(C(=O)c2ccc(-c3nc4ccc(F)cc4o3)cc2)C[C@H](C)N1C(=O)C1(N)CC1 [1-[(2S,6R)-4-[4-(6-fluoro-1,3-benzoxazol-2-yl)benzoyl]-2,6-dimethylpiperazine-1-carbonyl]cyclopropan-1-amine]"
11,< 500,O=C(c1ccc(-c2ccc(F)cc2Cl)cc1)N1CCN(C(=O)C2(O)CC2)CC1 [1-[(4-{[4-(2-chloro-4-fluorophenyl)phenyl]carbonyl}piperazin-1-yl)carbonyl]cyclopropan-1-ol]
12,< 500,Cn1ccc2cc(-c3ccc(C(=O)N4CCN(C(=O)C5(O)CC5)CC4)cc3)ccc21 [1-[(4-{[4-(1-methyl-1H-indol-5-yl)phenyl]carbonyl}piperazin-1-yl)carbonyl]cyclopropan-1-ol]

# The next lines start with the molecule.
row,Compound,IC50 [nM]
1,"Nc1noc2ccc(-c3ccc(C(=O)N4CCN(C(=O)C5(N)CC5)CC4)cc3)cc12 [5-{4-[4-(1-aminocyclopropanecarbonyl)piperazine-1-carbonyl]phenyl}-1,2-benzoxazol-3-amine]",< 500
2,O=C(c1ccc(-c2ccc(Cl)cc2F)c(Cl)c1)N1CCN(C(=O)C2(O)CC2)CC1 [1-{4-[3-chloro-4-(4-chloro-2-fluorophenyl)benzoyl]piperazine-1-carbonyl}cyclopropan-1-ol],< 500
3,"C[C@H]1CN(C(=O)c2ccc(-c3ccc4c(c3)ncn4C)cc2)CCN1C(=O)C1(O)CC1 [1-[(2S)-2-methyl-4-[4-(1-methyl-1H-1,3-benzodiazol-5-yl)benzoyl]piperazine-1-carbonyl]cyclopropan-1-ol]",< 500
4,"O=C(c1ccc(-c2nc3ccc(F)cc3o2)c(Cl)c1)N1CCN(C(=O)C2(O)CC2)CC1 [1-{4-[3-chloro-4-(6-fluoro-1,3-benzoxazol-2-yl)benzoyl]piperazine-1-carbonyl}cyclopropan-1-ol]",< 500
5,"Nc1noc2cc(-c3ccc(C(=O)N4CCN(C(=O)C5(O)CC5)CC4)cc3)ccc12 [1-{4-[4-(3-amino-1,2-benzoxazol-6-yl)benzoyl]piperazine-1-carbonyl}cyclopropan-1-ol]",< 500
6,C[C@H]1CN(C(=O)C2(O)CC2)CCN1C(=O)c1ccc(-c2ccc(Cl)cc2F)cc1 [1-[(3S)-4-[4-(4-chloro-2-fluorophenyl)benzoyl]-3-methylpiperazine-1-carbonyl]cyclopropan-1-ol],< 500
7,"Cn1ncc2ccc(-c3cc(F)c(C(=O)N4CCN(C(=O)C5(O)CC5)CC4)c(F)c3)cc21 [1-{4-[2,6-difluoro-4-(1-methyl-1H-indazol-6-yl)benzoyl]piperazine-1-carbonyl}cyclopropan-1-ol]",< 500
8,Cn1ncc2ccc(-c3ccc(C(=O)N4CCN(C(=O)C5(O)CC5)CC4)c(Cl)c3)cc21 [1-{4-[2-chloro-4-(1-methyl-1H-indazol-6-yl)benzoyl]piperazine-1-carbonyl}cyclopropan-1-ol],< 500
9,Cc1n[nH]c2cc(-c3ccc(C(=O)N4CCN(C(=O)C5(N)CC5)CC4)cc3)ccc12 [1-{4-[4-(3-methyl-1H-indazol-6-yl)benzoyl]piperazine-1-carbonyl}cyclopropan-1-amine],< 500
10,O=C(c1ccc(-c2cccc(NS(=O)(=O)C3CCC3)c2)cc1)N1CCN(C(=O)C2(O)CC2)CC1 [N-(3-{4-[4-(1-hydroxycyclopropanecarbonyl)piperazine-1-carbonyl]phenyl}phenyl)cyclobutanesulfonamide],< 500
11,"O=C(c1ccc(-c2nc3ccccn3c2Cl)cc1F)N1CCN(C(=O)C2(O)CC2)CC1 [1-[4-(4-{3-chloroimidazo[1,2-a]pyridin-2-yl}-2-fluorobenzoyl)piperazine-1-carbonyl]cyclopropan-1-ol]",< 500
12,"C[C@@H]1CN(C(=O)c2ccc(-c3ccc(Cl)cc3F)cc2)C[C@H](C)N1C(=O)C1(O)CC1 [1-[(2S,6R)-4-[4-(4-chloro-2-fluorophenyl)benzoyl]-2,6-dimethylpiperazine-1-carbonyl]cyclopropan-1-ol]",< 500
13,"O=C(c1ccc(N2CCc3ccccc3C2)cc1)N1CCN(C(=O)C2(O)CC2)CC1 [1-{4-[4-(1,2,3,4-tetrahydroisoquinolin-2-yl)benzoyl]piperazine-1-carbonyl}cyclopropan-1-ol]",< 500
14,"Cc1n[nH]c2ncc(-c3ccc(C(=O)N4CCN(C(=O)C5(O)CC5)CC4)cc3)cc12 [1-[4-(4-{3-methyl-1H-pyrazolo[3,4-b]pyridin-5-yl}benzoyl)piperazine-1-carbonyl]cyclopropan-1-ol]",< 500
15,"CC1(C)CN(C(=O)C2(O)CC2)CCN1C(=O)c1ccc(-c2ccc(Cl)cc2F)cc1 [1-{4-[4-(4-chloro-2-fluorophenyl)benzoyl]-3,3-dimethylpiperazine-1-carbonyl}cyclopropan-1-ol]",< 500
16,O=C(c1ccc(-c2cc(Cl)ccc2F)c(Cl)c1)N1CCN(C(=O)C2(O)CC2)CC1 [1-{4-[3-chloro-4-(5-chloro-2-fluorophenyl)benzoyl]piperazine-1-carbonyl}cyclopropan-1-ol],< 500
17,"Cc1nn(C)c2ccc(-c3ccc(C(=O)N4CCN(C(=O)C5(O)CC5)CC4)cc3Cl)cc12 [1-{4-[3-chloro-4-(1,3-dimethyl-1H-indazol-5-yl)benzoyl]piperazine-1-carbonyl}cyclopropan-1-ol]",< 500

# Same assay, conditions: FASN enzymatic assay; Table 2-2
row,IC50 [nM],Compound
1,500 to 5000,"O=C(c1ccc(-c2nc3cc(F)c(F)cc3[nH]2)cc1)N1CCN(C(=O)C2(O)CC2)CC1 [1-[(4-{[4-(5,6-difluoro-1H-1,3-benzodiazol-2-yl)phenyl]carbonyl}piperazin-1-yl)carbonyl]cyclopropan-1-ol]"
2,500 to 5000,O=C(c1ccc(-c2cc(C(F)(F)F)ccc2Cl)cc1)N1CCN(C(=O)C2(O)CC2)CC1 [1-{[4-({4-[2-chloro-5-(trifluoromethyl)phenyl]phenyl}carbonyl)piperazin-1-yl]carbonyl}cyclopropan-1-ol]

# Second part, the molecule before the results:
row,Compound,IC50 [nM]
1,COc1cccc(-c2ccc(C(=O)N3CCN(C(=O)C4(O)CC4)CC3)cc2)c1F [1-[(4-{[4-(2-fluoro-3-methoxyphenyl)phenyl]carbonyl}piperazin-1-yl)carbonyl]cyclopropan-1-ol],500 to 5000
2,O=C(c1ccc(-c2cc(F)cc(C(F)(F)F)c2)cc1)N1CCN(C(=O)C2(O)CC2)CC1 [1-{[4-({4-[3-fluoro-5-(trifluoromethyl)phenyl]phenyl}carbonyl)piperazin-1-yl]carbonyl}cyclopropan-1-ol],500 to 5000
3,O=C(c1ccc(-c2cccc(C(F)(F)F)c2F)cc1)N1CCN(C(=O)C2(O)CC2)CC1 [1-{[4-({4-[2-fluoro-3-(trifluoromethyl)phenyl]phenyl}carbonyl)piperazin-1-yl]carbonyl}cyclopropan-1-ol],500 to 5000

# Same assay, conditions: FASN enzymatic assay; Table 2-3
row,IC50 [nM],Compound
1,≥ 5000,"O=C(c1ccc(-c2cnc3cccnc3c2)cc1)N1CCN(C(=O)C2(O)CC2)CC1 [1-[(4-{[4-(1,5-naphthyridin-3-yl)phenyl]carbonyl}piperazin-1-yl)carbonyl]cyclopropan-1-ol]"
2,≥ 5000,C[C@@H]1CN(C(=O)C2(O)CC2)[C@@H](C)CN1C(=O)c1ccc(-c2ccc3cnccc3c2)cc1
3,≥ 5000,O=C(c1ccc(-c2ccccc2)cc1)N1CCN(C(=O)C2(O)CCCC2)CC1 [1-({4-[(4-phenylphenyl)carbonyl]piperazin-1-yl}carbonyl)cyclopentan-1-ol]
4,≥ 5000,Cc1ccc(-c2ccc(C(=O)N3CCN(C(=O)C4(O)CC4)CC3)cc2)cc1 [1-[(4-{[4-(4-methylphenyl)phenyl]carbonyl}piperazin-1-yl)carbonyl]cyclopropan-1-ol]
5,≥ 5000,O=C(c1ccc(-c2cncc(F)c2)cc1)N1CCN(C(=O)C2(O)CC2)CC1 [1-[(4-{[4-(5-fluoropyridin-3-yl)phenyl]carbonyl}piperazin-1-yl)carbonyl]cyclopropan-1-ol]
6,≥ 5000,C[C@H](O)C(=O)N1CCN(C(=O)c2ccc(-c3ccccc3)cc2)CC1 [(2S)-2-hydroxy-1-{4-[(4-phenylphenyl)carbonyl]piperazin-1-yl}propan-1-one]
